Reference: patent US8192962B2, “Processes for detecting toxic substances” (Daikin Industries, Ltd., priority 2001, dated 2012)

System: Genes belonging to other category
Assay: DNA chip mRNA expression in yeast, genes belonging to other category (Table 9)
Type: cell-based, Saccharomyces cerevisiae S288C
Experimental: Yeast (Saccharomyces cerevisiae S288C (α SUC2mal mel gap2 CUP1)) were incubated at 25° C. on YPD medium (yeast extract 1%, polypepton 2%, glucose 2%). One of toxic chemical substances was added to the cells at logarithmic growth phase, and the cells were further incubated for two hours. Cells were cultured without any chemical substance in the same condition, and were used as control. Concentrations of the chemical substances were defined to inhibit the growth of the yeast but not lead to death.
After completion of the incubation, the culture was centrifuged to collect the cells. To the cells, sodium acetate buffer (50 mM sodium acetate, 10 mM EDTA, 1% SDS) was added, and the mixture was shaken at 65° C. for five minutes, followed by returning to room temperature, and obtaining the supernatant, of which the procedures were repeated two times. To the supernatant, ½ amount of a solution of phenol/chloroform was added, and the mixture was centrifuged to give a supernatant, which was added with an equal amount of chloroform, and the mixture was centrifuged to give a supernatant. To the supernatant, an equal amount of isopropanol containing 0.3 M sodium acetate was added, and the mixture was allowed to stand at room temperature for 30 minutes, after which the mixture was centrifuged to give a sediment of the whole RNAs. Seventy % ethanol was added to the sediment, and the mixture was again centrifuged to give a sediment, which was then dried and dissolved in water. mRNA was isolated from the whole RNAs as followings. In view of the fact that a poly A chain is attached to the 3′ terminus of mRNA, a polynucleotide having a poly T structure which was immobilized on the surface of latex beads was used to trap the mRNA, and then the mRNA was washed and eluted with spine column (Oligotex-dT30<Super>mRNA Purification Kit, Takara). Reverse transcription of the mRNA was conducted with a reverse transcriptase (Super Script II Reverse Transcriptase; catalogue No. 18064-014, GibcoBRL) using fluorescence-labeled nucleotides to give cDNAs that were introduced with Cy3-dUTP or Cy5-dUTP during the reverse transcription.
The labeled cDNAs were dissolved in TE buffer (10mM Tris-HCl/1 mM EDTA, pH8.0), and the solution was dropped on the DNA chip containing the whole genes of yeast (DNA Chip Research Inc. Japan) so that the cDNAs were hybridized on the DNA chip at 65° C. for over 12 hours. The fluoresces intensity of the DNA chip was read with a scanner, and the ratio relative to the fluorescence intensity resulting from the absence of chemical substance was estimated as the following, which is shown in Tables 1 to 9: […]

[Cl][Pb][Cl] [(4), PbCl2]
The level of expressed mRNA in the presence of chemical substance/The level of expressed mRNA in the absence of chemical substance (yeast gene YAR010C): 0.8
The level of expressed mRNA in the presence of chemical substance/The level of expressed mRNA in the absence of chemical substance (yeast gene YBL005W-A): 0.9
The level of expressed mRNA in the presence of chemical substance/The level of expressed mRNA in the absence of chemical substance (yeast gene YBL041W): 1.0
The level of expressed mRNA in the presence of chemical substance/The level of expressed mRNA in the absence of chemical substance (yeast gene YBL043W): 1.3
The level of expressed mRNA in the presence of chemical substance/The level of expressed mRNA in the absence of chemical substance (yeast gene YBL078C): 2.6
The level of expressed mRNA in the presence of chemical substance/The level of expressed mRNA in the absence of chemical substance (yeast gene YBR214W): 2.0
The level of expressed mRNA in the presence of chemical substance/The level of expressed mRNA in the absence of chemical substance (yeast gene YCL020W): 1.1
The level of expressed mRNA in the presence of chemical substance/The level of expressed mRNA in the absence of chemical substance (yeast gene YCL027W): 1.0
The level of expressed mRNA in the presence of chemical substance/The level of expressed mRNA in the absence of chemical substance (yeast gene YCR071C): 0.8
The level of expressed mRNA in the presence of chemical substance/The level of expressed mRNA in the absence of chemical substance (yeast gene YCR088W): 0.9
The level of expressed mRNA in the presence of chemical substance/The level of expressed mRNA in the absence of chemical substance (yeast gene YDL008W): 1.1
The level of expressed mRNA in the presence of chemical substance/The level of expressed mRNA in the absence of chemical substance (yeast gene YDL238C): 1.7
The level of expressed mRNA in the presence of chemical substance/The level of expressed mRNA in the absence of chemical substance (yeast gene YDR055W): 2.8
The level of expressed mRNA in the presence of chemical substance/The level of expressed mRNA in the absence of chemical substance (yeast gene YDR084C): 1.1
The level of expressed mRNA in the presence of chemical substance/The level of expressed mRNA in the absence of chemical substance (yeast gene YDR085C): 3.4
The level of expressed mRNA in the presence of chemical substance/The level of expressed mRNA in the absence of chemical substance (yeast gene YDR104C): 1.2
The level of expressed mRNA in the presence of chemical substance/The level of expressed mRNA in the absence of chemical substance (yeast gene YDR115W): 1.5
The level of expressed mRNA in the presence of chemical substance/The level of expressed mRNA in the absence of chemical substance (yeast gene YDR259C): 1.4
The level of expressed mRNA in the presence of chemical substance/The level of expressed mRNA in the absence of chemical substance (yeast gene YDR315C): 1.3
The level of expressed mRNA in the presence of chemical substance/The level of expressed mRNA in the absence of chemical substance (yeast gene YDR358W): 1.1
The level of expressed mRNA in the presence of chemical substance/The level of expressed mRNA in the absence of chemical substance (yeast gene YDR388W): 1.0
The level of expressed mRNA in the presence of chemical substance/The level of expressed mRNA in the absence of chemical substance (yeast gene YDR432W): 1.4
The level of expressed mRNA in the presence of chemical substance/The level of expressed mRNA in the absence of chemical substance (yeast gene YDR481C): 0.7
The level of expressed mRNA in the presence of chemical substance/The level of expressed mRNA in the absence of chemical substance (yeast gene YDR510W): 1.3
The level of expressed mRNA in the presence of chemical substance/The level of expressed mRNA in the absence of chemical substance (yeast gene YEL042W): 0.9
The level of expressed mRNA in the presence of chemical substance/The level of expressed mRNA in the absence of chemical substance (yeast gene YEL066W): 2.2
The level of expressed mRNA in the presence of chemical substance/The level of expressed mRNA in the absence of chemical substance (yeast gene YER039C): 4.1
The level of expressed mRNA in the presence of chemical substance/The level of expressed mRNA in the absence of chemical substance (yeast gene YER107C): 0.6
The level of expressed mRNA in the presence of chemical substance/The level of expressed mRNA in the absence of chemical substance (yeast gene YER130C): 0.8
The level of expressed mRNA in the presence of chemical substance/The level of expressed mRNA in the absence of chemical substance (yeast gene YFL022C): 0.6
The level of expressed mRNA in the presence of chemical substance/The level of expressed mRNA in the absence of chemical substance (yeast gene YFL028C): 1.5
The level of expressed mRNA in the presence of chemical substance/The level of expressed mRNA in the absence of chemical substance (yeast gene YFL043C): 1.2
The level of expressed mRNA in the presence of chemical substance/The level of expressed mRNA in the absence of chemical substance (yeast gene YGL158W): 12.9
The level of expressed mRNA in the presence of chemical substance/The level of expressed mRNA in the absence of chemical substance (yeast gene YGL229C): 0.8
The level of expressed mRNA in the presence of chemical substance/The level of expressed mRNA in the absence of chemical substance (yeast gene YGR136W): 0.7
The level of expressed mRNA in the presence of chemical substance/The level of expressed mRNA in the absence of chemical substance (yeast gene YGR189C): 3.5
The level of expressed mRNA in the presence of chemical substance/The level of expressed mRNA in the absence of chemical substance (yeast gene YGR213C): 6.8
The level of expressed mRNA in the presence of chemical substance/The level of expressed mRNA in the absence of chemical substance (yeast gene YGR257C): 1.1
The level of expressed mRNA in the presence of chemical substance/The level of expressed mRNA in the absence of chemical substance (yeast gene YHR004C): 1.1
The level of expressed mRNA in the presence of chemical substance/The level of expressed mRNA in the absence of chemical substance (yeast gene YHR071W): 1.6
The level of expressed mRNA in the presence of chemical substance/The level of expressed mRNA in the absence of chemical substance (yeast gene YHR139C): 9.3
The level of expressed mRNA in the presence of chemical substance/The level of expressed mRNA in the absence of chemical substance (yeast gene YHR142W): 0.8
The level of expressed mRNA in the presence of chemical substance/The level of expressed mRNA in the absence of chemical substance (yeast gene YIL123W): 1.5
The level of expressed mRNA in the presence of chemical substance/The level of expressed mRNA in the absence of chemical substance (yeast gene YIL140W): 1.4
The level of expressed mRNA in the presence of chemical substance/The level of expressed mRNA in the absence of chemical substance (yeast gene YJL073W): 0.7
The level of expressed mRNA in the presence of chemical substance/The level of expressed mRNA in the absence of chemical substance (yeast gene YJL089W): 0.8
The level of expressed mRNA in the presence of chemical substance/The level of expressed mRNA in the absence of chemical substance (yeast gene YJL116C): 1.9
The level of expressed mRNA in the presence of chemical substance/The level of expressed mRNA in the absence of chemical substance (yeast gene YJR004C): 0.6
The level of expressed mRNA in the presence of chemical substance/The level of expressed mRNA in the absence of chemical substance (yeast gene YJR086W): 1.4
The level of expressed mRNA in the presence of chemical substance/The level of expressed mRNA in the absence of chemical substance (yeast gene YKL008C): 0.8
